Experimental data published in publication PMC12590356, “Novel pyrrolo[2,1-a]isoquinoline aryl ketones attenuate carbon nanotube-induced acute lung injury through NF-κB pathway inhibition” (RSC Advances, 2025).
Entries after “also recorded” stand apart in the source; their conditions may differ.

Assays:
TNF-α = TNF-α secretion in LPS-stimulated RAW264.7 macrophages (ELISA); format: cell-based, murine; conditions: Mus musculus, LPS (0.5 μg/mL)-stimulated RAW264.7 cells, 24 h, read-out: IC50 for TNF-α inhibition
Experimental: To elucidate the anti-inflammatory mechanisms underlying 3g and 3k, we conducted a comprehensive investigation into their impact on the secretion of pro-inflammatory cytokines, employing an LPS-stimulated RAW264.7 macrophage model. TNF-α and IL-6, which serve as pivotal mediators in the pathogenesis of ALI, are primarily secreted by activated alveolar macrophages, neutrophils, and lung structural cells. […] In this study, RAW264.7 cells were treated with LPS (0.5 μg mL^−1) and varying concentrations of 3g or 3k for 24 hours. […] This mechanistic understanding provides robust support for the therapeutic potential of the novel diaryl ketone scaffold in the ALI management.
Fig. 2 Compounds 3g and 3k inhibited the cytokine production of RAW264.7 cells stimulated by LPS. […] The levels of IL-6 (A) and TNF-α (B) in the culture medium were measured by ELISA kits. Data are expressed as mean ± SEM for each group of independent experiments (n = 3); *p < 0.05; **p < 0.01; ***p < 0.001 vs. model group.
Based on the initial screening results, compounds 3g and 3k were selected for further experimentation. […] The levels of TNF-α and IL-6 released into the macrophage supernatant were quantified using ELISA kits sourced from Elabscience (Wuhan, China), according to the manufacturer's guidelines.

NF-κB p65 = test: Immunofluorescence of NF-κB p65 in lung tissues; format: in vivo, C57BL/6 mice; conditions: SWCNT-induced ALI mice, 50 mg/kg once a day for 3 d
From the text: To elucidate the mechanism underlying the modulation of NF-κB pathway, we employed immunofluorescence techniques to scrutinize the spatiotemporal dynamics of NF-κB p65 within lung tissues. The canonical NF-κB signaling cascade involves IκB kinase (IKK)-mediated phosphorylation of IκBα, triggering its ubiquitination and proteasomal degradation. This process releases the NF-κB p65/p50 heterodimer, enabling its nuclear translocation and subsequent initiation of pro-inflammatory mediator transcription.[35,36] […] This finding implies a pharmacological activity that is contingent upon the structural characteristics of the compounds.
(§1) Based on the results of the previous in vitro experiments, 3g and 3k were chosen for animal experiments. 3g was dissolved in 5% DMSO and 3k was dissolved in 0.5% sodium carboxymethyl cellulose (CMC-Na). Male C57BL/6 mice were randomly divided into four groups of ten animals each: CON, single-walled carbon nanotubes (SWCNT) model, 3k (50 mg kg^−1) + SWCNT, 3g (50 mg kg^−1) + SWCNT. The SWCNT model group was administered a one-time tracheal drip of 50 μL of SWCNT suspension containing 40 μg of SWCNT (approximately 1.86 mg per kg body weight) per mouse to model ALI. […]
(§2) Mouse lung tissues were isolated and stored in a 4% paraformaldehyde solution. […] Representative images of each sample were acquired (magnification ×200) and analyzed using the ImageJ software. […]

SWCNT-induced ALI mice [1] = test: Complete blood count in SWCNT-induced ALI mice; format: in vivo, C57BL/6 mice; conditions: 50 mg/kg once a day for 3 d, p < 0.01 vs. model
From the text: To explore the immunomodulatory effects of 3g and 3k, we conducted an analysis of systemic inflammatory responses in mice with SWCNT-induced ALI by employing hematological profiling. During inflammatory responses, immune activation induces cytokine production and modulates leukocyte trafficking dynamics. […] Mechanistically, the proliferation of LY is initiated in response to inflammatory stimuli as a means to combat infection. […] Consequently, this leads to a diminished requirement for the continuous mobilization of LY. These findings highlight the anti-inflammatory and immunomodulatory properties of pyrrolo[2,1-a]isoquinoline derivatives in mitigating SWCNT-induced pulmonary injury.
as §1, with “SWCNT.” for “SWCNT. The SWCNT model group was administered a one-time tracheal drip of 50 μL of SWCNT suspension containing 40 μg of SWCNT (approximately 1.86 mg per kg body weight) per mouse to model ALI.”
Blood samples were extracted from the eyeballs of each experimental mouse cohort to obtain comprehensive whole blood specimens. Complete blood count (CBC) and differential leukocyte count (DLC) were determined using an automatic blood cell analyzer (Mindray CAL 6000, China).

SWCNT-induced ALI mice [2] = test: Lung histopathology (H&E) in SWCNT-induced ALI mice; format: in vivo, C57BL/6 mice; conditions: 50 mg/kg once a day for 3 d
Experimental: To evaluate the histopathological impact of 3g and 3k on SWCNT-induced ALI, hematoxylin and eosin (H&E) staining was performed on murine lung tissues.
as §1, with “ALI. A blank tracheal drip of PBS was administered to the negative control. 3k + SWCNT and 3g + SWCNT groups were administered 3k or 3g of 50 mg per kg body weight once a day for 3d. The animals in the CON group received the same volume of 0.5% CMC-Na. The 1st dose was administered 1 h before modeling to avoid excessive damage to mice. The control and model groups were injected intraperitoneally with a blank solvent.” for “ALI.”
as §2

[3] = tested on: LPS-induced NO production in RAW 264.7 cells; test: LPS-induced NO production (Griess reagent); format: cell-based, murine; conditions: Mus musculus, RAW264.7, LPS 500 ng/mL 24 h, Griess reagent, means ± SD (n = 3), read-out: IC50, inhibition of LPS-induced NO production
Experimental: Despite extensive research efforts focused on the treatment ALI, no specific drugs have been identified thus far. In the quest to discover innovative anti-inflammatory drugs for ALI treatment, we assessed the anti-inflammatory potential of pyrrolo[2,1-a]isoquinoline aryl ketones were evaluated through their capacity to suppress LPS-induced NO release in RAW264.7 cells.[21,28] Griess reagent was used to quantify the levels of LPS-induced NO release in RAW264.7 cells following treatment with the synthesized compounds.
The quantification of NO production in activated RAW264.7 cells was achieved by measuring the concentration of nitrite, which serves as a stable oxidative metabolite of NO, employing a previously established protocol.[37] RAW264.7 cells were cultured overnight in 48-well plates at a cellular density of 5 × 10^4 cells per milliliter. […] Briefly, Griess reagents I and II were mixed with 50 μL of the culture medium supernatant, and the resultant mixture was analyzed spectrophotometrically at a wavelength of 540 nm using an automated microplate reader. The NO inhibition rate was calculated using the following formula: NO inhibition rate = [(OD540 − compound OD540)/(OD540 − blank OD540)] × 100%.

| SMILES | IC50 (TNF-α) [µM] | p65 fluorescence intensity and nuclear translocation in lung tissue (NF-κB p65) | Circulating lymphocyte (LY) count (SWCNT-induced ALI mice [1]) | Histopathological lung changes (H&E) (SWCNT-induced ALI mice [2]) | IC50 [3] [µM] | p65 fluorescence intensity and nuclear translocation in lung tissue (NF-κB p65; 50 mg/kg) | Histopathological lung changes (H&E) (SWCNT-induced ALI mice [2]; 50 mg/kg) |
| --- | --- | --- | --- | --- | --- | --- | --- |
| Cc1ccccc1C(=O)c1ccc2c3ccccc3ccn12 [3k] | 8.3 | reduced fluorescence intensity and suppressed nuclear translocation of p65 | significantly reduced circulating LY populations | significantly ameliorated these histopathological features | 10.1 ± 2.09 | – | – |
| O=C(c1ccc(F)cc1)c1ccc2c3ccccc3ccn12 [3g] | 7.85 | – | significantly reduced circulating LY populations | – | 6.91 ± 0.12 | reduced fluorescence intensity and suppressed nuclear translocation of p65; also recorded: significantly enhanced efficacy in inhibiting he nuclear translocation of p65 | significantly ameliorated these histopathological features; also recorded: superior efficacy in mitigating structural damage and neutrophil infiltration compared to 3k |
